Results: article PMC12523642, “Unveiling the Bioactive Potential of Allium colchicifolium Boiss Bulb Flavonoids: Anti-cancer Activities, and Computational Exploration of Anti-angiogenic Mechanisms” (Iranian Journal of Pharmaceutical Research : IJPR, 2025)
In brackets after ≈: the same amount, converted by molar mass. Read-outs that look alike come from different tables or passages of the source.

Assays:
[1] = test system: VEGF receptor-2 and angiogenesis cellular signaling pathways; conditions: 25 µM; cited from earlier work
[2] = test system: chicken chorioallantoic membrane (CAM); assay: Chick chorioallantoic membrane (CAM) anti-angiogenesis assay; type: in vivo; conditions: Gallus gallus, read-out: Anti-angiogenesis IC50 (50% inhibition of angiogenesis)
Method: The anti-angiogenesis activities of the MeOH extract and isolated compounds ([1]-[3]) were evaluated using the chicken chorioallantoic membrane (CAM) model. Briefly, pathogen-free fertilized chicken eggs were purchased from Baharan Parent Stock Company, Kermanshah, Iran, and incubated at 37°C with 75% humidity for 7 days. Then, square windows (1 cm^2) were opened in the outer shell of the eggs, and different concentrations of samples were loaded. After 48 hours, the zones around the discs were photographed with a digital camera and macroscopically assayed for neovascular zones of CAM in each treatment group. The effects on local vessel density within a 10 cm^2 area surrounding the windows were measured in each treatment group using AngioSoft software (V, 2019) ([12], [13]). The study was done in triplicate for each experimental group (8 eggs). The anti-angiogenesis IC50 value for the extracts was reported as the concentration that reduces 50% angiogenesis compared to the blank disk.
The results of the anti-angiogenesis activities of isolated flavonoids (1 - 3) and the MeOH extract of A. colchicifolium bulbs on the CAM model of angiogenesis are shown in Figure 2A and B. The IC50 of each compound was considered as the concentration that caused 50% inhibition of angiogenesis in a 100 mm^2 area surrounding each sample disc compared to the negative control disc (distilled water).

mice VEGF serum levels = test system: mice VEGF serum levels; parameters: method as in PMID 23867787; conditions: 20 mg/kg; by reducing mice VEGF serum levels; cited from earlier work
[3] = test system: HeLa (human cervix carcinoma); assay: MTT cytotoxicity assay on HeLa; type: cell-based; conditions: 24 hours, mean ± SD, read-out: Cytotoxic activity IC50, HeLa
Method: (§1) Cancer cell lines, including PC3 NCBI-C427 (human prostate adenocarcinoma), HeLa NCBI-C115 (human cervix carcinoma), MCF7 NCBI-C135 (human breast adenocarcinoma), and a normal cell line, human umbilical vein endothelial cell (HUVEC) NCBI-C554, were purchased from the Pasteur Institute of Tehran, Iran. Cells were cultured and maintained in Dulbecco’s modified Eagle’s medium (DMEM) supplemented with 10% fetal bovine serum (FBS) and 2% (v/v) streptomycin-penicillin in a humidified incubator with a 5% CO2 atmosphere at 37°C. Passages 2 to 3 of the cells were utilized for the cytotoxicity assay ([18]).
(§2) The MTT assay was used to determine the cytotoxic activities of the MeOH extract, isolated compounds (1 - 3), and doxorubicin (as a positive control) on human cancer cell lines. For the MTT assay, concentrations (1, 5, 10, 25, 50, 100 µg) of the samples were prepared in DMEM as diluent and incubated with cells (10^5 cells/mL) for 24 hours in 96-well plates. Then, the MTT powder was added to the wells and incubated for 4 hours at 37°C. Absorbance was measured at 570 nm using a microplate reader. The experiment was performed in triplicate, and cell viability percentages were calculated by the following equation: […]. The negative control was untreated cells. The cytotoxicity IC50 value for the extracts was defined as the concentration that reduces 50% cell viability ([19]).

[4] = MTT cytotoxicity assay on HUVEC (normal cell line); type: cell-based; conditions: human, HUVEC (umbilical vein endothelial cells), mean ± SD, read-out: Cytotoxic activity IC50, HUVEC
Method: as §1, §2

[5] = test system: PC3 (human prostate adenocarcinoma); assay: MTT cytotoxicity assay on PC3; type: cell-based; conditions: 24 h, mean ± SD, read-out: Cytotoxic activity IC50, PC3
Method: as §1, §2

[6] = test system: MCF7 (human breast adenocarcinoma); assay: MTT cytotoxicity assay on MCF-7; type: cell-based; conditions: MCF7, 24 h, mean ± SD, read-out: Cytotoxic activity IC50, MCF-7
Method: as §1, §2

CAM model = conditions: 10 nM; by blocking matrix metalloproteinase-2 gene expression; cited from earlier work
[7] = CAM model, 48 hours, compared to negative control disc

**Q.** Which Anti-angiogenesis activities [1] does the source give for `COc1ccc(-c2oc3c(C)c(OC)cc(OC)c3c(=O)c2OC)cc1OC` [8-methylquercetin-3,5,7,3',4'-pentamethyl ether, reference compound] here?
**A.** demonstrated anti-angiogenesis activities

**Q.** For `C[C@@H]1O[C@@H](OC[C@H]2O[C@@H](Oc3c(-c4ccc(O)c(O)c4)oc4cc(O)cc(O)c4c3=O)[C@H](O)[C@@H](O)[C@@H]2O)[C@H](O)[C@H](O)[C@H]1O` [Compound 1, quercetin 3-O-rutinoside], which IC50 [2, 7] is on record?
**A.** 7.12 ± 0.1 µg/mL (≈ 11.7 µM)

**Q.** And the Inhibition of angiogenesis (mice VEGF serum levels)?
**A.** inhibited angiogenesis

**Q.** And the IC50 [3]?
**A.** 6.95 ± 0.32 µg/mL (≈ 11.4 µM)

**Q.** And the IC50 at 24 h [4]?
**A.** 9.35 ± 0.8 µg/mL (≈ 15.3 µM)

**Q.** And the IC50 [5]?
**A.** 2.96 ± 0.16 µg/mL (≈ 4.85 µM)

**Q.** What about the IC50 [6] of the same compound?
**A.** 3.16 ± 0.3 µg/mL (≈ 5.18 µM)

**Q.** Which IC50 [2, 7] does the source give for `COc1cc(-c2oc3cc(O)cc(O)c3c(=O)c2O[C@@H]2O[C@H](CO)[C@@H](O)[C@H](O)[C@H]2O)ccc1O` [Compound 2, isorhamnetin 3-O-glucoside] here?
**A.** 6 ± 0.21 µg/mL (≈ 12.5 µM)

**Q.** What about the IC50 [3] of the same compound?
**A.** 8.43 ± 0.32 µg/mL (≈ 17.6 µM)

**Q.** What about the IC50 at 24 h [4] of the same compound?
**A.** 9.96 ± 0.37 µg/mL (≈ 20.8 µM)

**Q.** What about the IC50 [5] of the same compound?
**A.** 1.72 ± 0.02 µg/mL (≈ 3.6 µM)

**Q.** What about the IC50 [6] of the same compound?
**A.** 2.58 ± 0.21 µg/mL (≈ 5.39 µM)

**Q.** With `O=c1c(O)c(-c2ccc(O)c(O)c2)oc2cc(O)cc(O)c12` [Compound 3, quercetin] as the compound, how does the IC50 ([2]; 48 h) read?
**A.** 5.3 ± 0.3 µg/mL (≈ 17.5 µM)

**Q.** What about the “Anti-angiogenesis on the CAM model” value (CAM model) of the same compound?
**A.** exhibited anti-angiogenesis

**Q.** What about the Anti-angiogenesis activities [1] of the same compound?
**A.** demonstrated anti-angiogenesis activities

**Q.** And the IC50 [3]?
**A.** 6.17 ± 0.13 µg/mL (≈ 20.4 µM)

**Q.** And the IC50 at 24 h [4]?
**A.** 7.23 ± 0.29 µg/mL (≈ 23.9 µM)

**Q.** And the IC50 [5]?
**A.** ≤ 3 µg/mL

**Q.** And the IC50 [6]?
**A.** ≤ 3 µg/mL

**Q.** Which results are given for `COc1cccc2c1C(=O)c1c(O)c3c(c(O)c1C2=O)C[C@@](O)(C(=O)CO)C[C@@H]3O[C@H]1C[C@H](N)[C@H](O)[C@H](C)O1` [Doxorubicin, doxorubicin, reference compound]?
**A.** IC50 [3]: 0.066 ± 0.007 µg/mL (≈ 0.121 µM); IC50 at 24 h [4]: 0.045 ± 0.006 µg/mL (≈ 0.0828 µM); IC50 [5]: 0.051 ± 0.004 µg/mL (≈ 0.0938 µM); IC50 [6]: 0.034 ± 0.01 µg/mL (≈ 0.0626 µM)
